Values quoted from earlier work, collected in PMC8917853, “Synthesis and evaluation of ^99mTc-DOTA-ARA-290 as potential SPECT tracer for targeting cardiac ischemic region” (Iranian Journal of Basic Medical Sciences, 2021).
Where two headings read alike, the source gives them in different places. Non-standard residues stand in square brackets, D forms with d. pGlu = O=C1CC[C@@H](C(=O)O)N1

Experiments:
[1] = cited from earlier work
From the text: Myocardial infarction, the most prominent cardiovascular disease outcome (CVD), is the main reason for morbidity and death in the world ([1]). Immediate and precise diagnosis of cardiac hypoxia and ischemia is very critical and crucial for appropriate treatment and prevention of myocardial damage ([2]). Evaluation of cardiac ischemic biomarkers in blood plasma, including Creatine Kinase-MB, cardiac troponin, and lactate dehydrogenase (LDH) is valuable for diagnosis; however, their levels increase in blood after a delay of time ([3]).

[2] = metabolic stability; 41 (Yang et al.); cited from earlier work
From the text: Myocardial SPECT imaging as a nuclear cardiological scan has been used in many procedures for ischemic heart diseases ([36]). In the mid-1970s, […]-201 (201TI) imaging has been used to ascertain regional myocardial perfusion models at rest, stress, and acute myocardial infarction, but because of the concerns about medical exposure to ionizing radiation and lower image quality, ^201Tl was substituted by ^99mTc-labeled perfusion agents (^99mTc-sestamibi and ^99mTc-tetrofosmin). However, these SPECT agents show poor pharmacokinetic features with reducing uptake with higher flows ([37], [38]) ...

Substance: [pGlu]EQLERALNSS-OH [ARA-290, 11 amino acid nonhematopoietic peptide derived from helix B of EPO]
- half-life ([1]; in rabbits): roughly 2 min
- half-life ([1]; in rats): roughly 2 min
- in vivo stability [2]: 2 min
